In data set [1] the test system is WNT/β-catenin signaling pathway reporter in HEK293 cells. The data set can be described thus: cells. The following applies: for activity in words: assay not given (TNKS2 / HEK293), Supplementary Table 1; for IC50: Homo sapiens, HEK293, read-out: HEK293 IC50, WNT/β-catenin reporter. The class given is cell-based, human. As to the method:
(§1) In the first round of the optimization campaign, we prepared single-point modifications changing any of the four regions in 1 (Figure 1) while leaving the other regions constant. In the following stages of the optimization campaign, additional East, West, and South moieties were also utilized, combining the best structural elements of the first single-point modification round. For the optimization, in vitro ADME properties and solubility of selected compounds were measured.

Data set [2] addresses T1, TNKS2 (Homo sapiens, UniProt Q9H2K2).
T1 construct: TNKS2 (residues 873–1162); made in house
T1 sequence (Q9H2K2 873-1162): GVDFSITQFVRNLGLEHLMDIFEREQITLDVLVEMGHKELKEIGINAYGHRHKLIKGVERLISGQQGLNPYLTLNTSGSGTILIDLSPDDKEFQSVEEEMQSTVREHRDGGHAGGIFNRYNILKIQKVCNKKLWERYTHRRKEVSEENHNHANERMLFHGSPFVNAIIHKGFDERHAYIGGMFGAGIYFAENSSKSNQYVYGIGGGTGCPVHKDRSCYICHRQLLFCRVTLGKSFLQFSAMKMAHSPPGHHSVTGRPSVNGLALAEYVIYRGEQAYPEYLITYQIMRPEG
The class given is biochemical. How it is done:
as §1
Human tankyrase active constructs for TNKS1 (residues 1030–1317) and TNKS2 (residues 873–1162) and other ARTD/PARP enzymes used in the assays were expressed and purified as previously described.[34],[35] The enzymatic assay is based on the measurement of unreacted NAD^+, which is chemically converted into a fluorescent compound.[36] The fluorescence intensity was measured with excitation/emission wavelengths of 372 and 444 nm, respectively, using Tecan Infinity M1000 Pro. The compounds were prepared in half log dilution series and the reactions were done in quadruplicates with protein and compound controls to exclude the effect of compound autofluorescence. All reactions were done at ambient temperature. 20 nM TNKS1 or 5 nM TNKS2 was incubated for 20 h in assay buffer (50 mM BTP, pH 7.0, 0.5 mM TCEP, 0.01% Triton-X100) with compound and 10 μM or 500 nM NAD^+, respectively. […] For ARTD3/PARP3, 20 nM enzyme was incubated for 4 h with compound and 500 nM NAD^+ in assay buffer (50 mM PIPES, pH 7.0, 5 mM MgCl2, 20 μg/mL activated DNA, 0.2 mg/mL BSA). The assay conditions for the other ARTD enzymes were used as previously described.[37]

Data set [3] is described as follows: kinetic solubility assay. In kind it is physicochemical. The settings on record: for solubility: Table 2. How it is done: (§2) Kinetic solubility assay was performed following standard protocols of Mercachem. The following assays were performed according to the standard protocols of Cyprotex: Caco-2 permeability, dog microsomal stability, hepatocyte stability (human, mouse, dog, rat, and cynomolgus), CYP3A4 inhibition, mouse plasma stability, mouse plasma protein binding, and Ames test.

Data set [4] can be described thus: microsomal stability, mouse liver microsomes. The class given is in vitro ADME. The settings on record: for half-life at 1 μM: pH 7.4, read-out: Microsomal stability t1/2 mouse. As to the method:
(§3) Test compounds in DMSO (10 mM) were further diluted to 100 μM in acetonitrile. Human or mouse liver microsomes (BioIVT) from selected species are incubated in duplicate with the test compound at a final concentration of 1 μM in 0.1 M potassium phosphate buffer (pH 7.4) containing 3.3 mM MgCl2, 0.5 mg/mL microsomal protein, in the presence or absence of NADPH (1 mM). Incubations were performed at 37 °C in a total volume of 500 μL. Control incubations with reference substances were included for each experiment. At t = 0, 5, 15, 30, 45 min, an amount of 50 μL of the incubation mixture was transferred to a quench plate containing acetonitrile and internal standard (200 nM labetalol) cooled at 4 °C. After the last time point, the quench plates are mixed thoroughly and centrifuged for 15 min at 3700 rpm and 10 °C (Eppendorf 5804R). The supernatant was transferred to a 96-well plate and analyzed by LCMS (Vanquish Horizon UHPLC equipped with a diode array detector coupled to a Q Exactive focus hybrid quadrupole-Orbitrap mass spectrometer). The metabolic stability is evaluated by plotting the natural logarithm of the percentage test compound remaining versus time and performing linear regression.
On the technique in general: Microsomes from liver hold many membrane-bound enzymes, among them those of drug oxidation.

Data set [5] is described as follows: microsomal stability, human liver microsomes. In kind it is in vitro ADME. The following applies: for half-life at 1 μM: pH 7.4, read-out: Microsomal stability t1/2 human. How it is done:
as §3

A short description of data set [6]: Caco-2 permeability. The class given is in vitro ADME. The following applies: human. As to the method:
as §2
(In general: Caco-2 cells form a polarised layer with tight junctions and transporters.)

The nature of data set [7]: hepatocyte stability, human. In kind it is in vitro ADME. The settings on record: hepatocytes. How it is done:
as §2

Data set [8] is described as follows: in vivo. How it is done: as §1
The pharmacokinetical analyses in mice were performed according to the standard protocols of Medicilon and, as previously described,[9] using 3 animals per treatment group using 5% DMSO, 50% PEG400 (both Sigma-Aldrich) and 45% saline as vehicle.

Data set [9] deals with T2, CYP3A4 (Homo sapiens, UniProt P08684).
T2 construct: Cyprotex
The experiment in a line: CYP3A4 inhibition. In kind it is in vitro ADME. As to the method:
as §2

The subject of data set [10] is PARPs/ARTDs ARTD1/2/3/4/7/8/10/12. The experiment in a line: PARP/ARTD family selectivity, biochemical assays.
Where [11] appears, read: pH 7.4, read-out: Kinetic Solubility pH 7.4.
Where [12] appears, read: A-B, read-out: Caco-2 permeability Papp AB.

Converted amounts (≈) assume the structure as drawn. Read-outs that look alike come from different tables or passages of the source.

A word on the solubility: it is the concentration that dissolves in the medium under given conditions. A high value points to a readily soluble substance. As a reminder, the microsomal CLint is the rate of metabolic loss divided by the concentration. What is called kinetic solubility is solubility judged after dilution from a stock solution rather than from solid. As usually defined, the efflux ratio is the permeability from basolateral to apical divided by that in the opposite direction, in the common usage. Usually hepatocyte CLint stands for a measure of how fast metabolising enzymes remove a compound, apart from limits set by blood flow. In general, AUC(0-inf) refers to the area under the concentration-time curve extrapolated to infinity. What is called AUC(0-t) is the area under the concentration-time curve up to a stated or last time point. By Cmax is commonly meant the maximum level reached in the sampled fluid or tissue. Broadly, the MRT inf is a mean duration of stay, worked out from the concentration-time curve. By Tmax is commonly meant the time from dosing to the highest level. A word on the bioavailability: it is dose-corrected exposure relative to a reference, in per cent. Lower therefore signals little systemic uptake.

T2 sequence (P08684 whole entry, species assumed): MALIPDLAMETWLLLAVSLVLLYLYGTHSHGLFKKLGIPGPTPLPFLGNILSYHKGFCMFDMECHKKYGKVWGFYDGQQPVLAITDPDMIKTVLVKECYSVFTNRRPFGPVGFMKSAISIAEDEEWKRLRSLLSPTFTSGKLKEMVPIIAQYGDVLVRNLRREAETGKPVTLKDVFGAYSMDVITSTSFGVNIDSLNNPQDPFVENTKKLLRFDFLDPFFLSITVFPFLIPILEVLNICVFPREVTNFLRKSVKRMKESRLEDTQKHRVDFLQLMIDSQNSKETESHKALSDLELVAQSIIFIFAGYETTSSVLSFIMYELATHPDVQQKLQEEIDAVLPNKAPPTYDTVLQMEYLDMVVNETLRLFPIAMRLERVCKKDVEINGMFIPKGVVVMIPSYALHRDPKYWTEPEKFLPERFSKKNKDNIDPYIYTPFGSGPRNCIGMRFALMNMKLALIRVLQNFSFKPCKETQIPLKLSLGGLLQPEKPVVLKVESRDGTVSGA

As to `O=C(Cc1ccccc1)N[C@H]1C[C@H](c2nnc(-c3ccncn3)n2-c2ccccc2Cl)C1` [compound 52], the activity in words entry in data set [1] is “inactive”.
Same read-out and setting: then `CC(=O)N[C@H]1C[C@H](c2nnc(-c3ccncn3)n2-c2ccccc2Cl)C1` [compound 54], with “inactive”.
On to `N#Cc1ccc2c(c1)oc(=O)n2[C@H]1C[C@H](c2nnc(-c3ccncn3)n2-c2ccccc2Cl)C1` [compound 18, 3-(trans-3-(4-(2-Chlorophenyl)-5-(pyrimidin-4-yl)-4H-1,2,4-triazol-3-yl)cyclobutyl)-2-oxo-2,3-dihydrobenzo[d]oxazole-6-carbonitrile], for which the IC50 amounted to 48 nM in data set [2] and 274 nM in data set [1].
In turn, `O=C(N[C@H]1C[C@H](c2nnc(-c3ccccn3)n2-c2ccccc2F)C1)c1ccnc2cccnc12` [compound 26] showed a solubility in data set [3] (pH 7.4) greater than 80 µM.
Consider “3-(trans-3-(4-(2-Chlorophenyl)-5-(pyrimidin-4-yl)-4H-1,2,4-triazol-3-yl)cyclobutyl)isoindolin-1-one [compound 51]”, for which the activity in words result in [1] was “activity was restored”.
Compound `Cc1cccc(-c2nnc([C@H]3C[C@H](NC(=O)c4ccnc5cc(F)cnc45)C3)n2-c2ccccc2F)n1` [compound 31] gave a solubility in [3] (pH 7.4) greater than 80 µM.
`N#Cc1ccc2c(c1)[nH]c(=O)n2C12CC(c3nnc(-c4ccncn4)n3-c3ccccc3Cl)(C1)C2` [compound 19, 1-(3-(4-(2-Chlorophenyl)-5-(pyrimidin-4-yl)-4H-1,2,4-triazol-3-yl)bicyclo[1.1.1]pentan-1-yl)-2-oxo-2,3-dihydro-1H-benzo[d]imidazole-5-carbonitrile]: the microsomal CLint at 0.75 h, 1 µM in data set [4] (pH 7.4) was 256 µL/min/mg; in [5] (pH 7.4) it was 200 µL/min/mg. Besides, the half-life at 1 μM came to 5 min in [4] and 7 min in [5]. The solubility (kinetic) in data set [3] (setting [11]) amounted to 1.5 µM (≈ 0.721 µg/mL). Besides, the IC50 came out at 3.6 nM in data set [2] and 4.7 nM in data set [1]. Further, the efflux ratio at 2 h, 10 µM in data set [6] turned out to be 5.3. The Papp A→B at 2 h, 10 µM in data set [6] (setting [12]) was 5 ×10⁻⁶ cm/s.
As to `N#Cc1ccc2c(c1)[nH]c(=O)n2[C@H]1C[C@@H](c2nnc(-c3ccncn3)n2-c2ccccc2Cl)C1` [compound 75], the potency in words result in data set [2] was “decreased potency”.
With `CN(C(=O)c1ccccn1)[C@H]1C[C@H](c2nnc(-c3ccncn3)n2-c2ccccc2Cl)C1` [compound 44], in data set [1], the activity in words result is “inactive”.
In data set [7], `N#Cc1ccc2c(c1)[nH]c(=O)n2[C@H]1C[C@H](c2nnc(-c3ccncn3)n2-c2ccccc2Cl)C1` [compound 1] returned a hepatocyte CLint of 9.8 µL/min/1e6 cells. Moreover, the microsomal CLint at 1 μM in [4] (pH 7.4) amounted to 204 µL/min/mg. Also, in [4], the half-life at 1 μM was determined as 7 min. Moreover, in data set [8] (mouse po 5 mg/kg), the CL was 567 mL/min/kg and the Vd came out at 74.2 L/kg. Besides, the T1/2 in data set [8] (mouse po 5 mg/kg, 5 mg/kg) worked out at 90 min. For the same compound, in [8] (mouse, in vivo, po, 5 mg/kg), the AUC(0-inf) worked out at 147 ng·h/mL, the AUC(0-t) was found to be 145 ng·h/mL, the peak level (Cmax) was 124 ng/mL and the MRT inf came to 96.6 min. In [8] (mouse, in vivo, po, 5 mg/kg), the Tmax came to 15 min and the bioavailability was 47%. Moreover, in [8] (mouse, in vivo, po, 5 mg/kg, T1/2, mouse po 5 mg/kg), the half-life is 90.6 min. For the same compound, in data set [9], the IC50 is 1260 nM. The same compound returned a kinetic solubility in [3] (PBS, pH = 7) of 12 µM (≈ 5.63 µg/mL). Also, in data set [3] (setting [11]), the kinetic solubility was found to be 12 µM (≈ 5.63 µg/mL). Besides, the microsomal CLint at 1 μM in data set [5] (pH 7.4) worked out at 242 µL/min/mg. In [5], the half-life at 1 μM amounted to 6 min. The same compound returned an IC50 in data set [10] greater than 10000 nM. The Papp A→B in [6] (setting [12]) was 10 ×10⁻⁶ cm/s.
Regarding `Cn1c(=O)n([C@H]2C[C@H](c3nnc(-c4ccncn4)n3-c3ccccc3Cl)C2)c2ccc(C#N)cc21` [compound 17], the IC50 was determined as 34 nM in data set [2] and 116 nM in data set [1].
Take `N#Cc1ccc2c(c1)[nH]c(=O)n2[C@H]1C[C@H](c2nnc(-c3ccncn3)n2-c2ccccc2C(F)(F)F)C1` [compound 66]: in data set [1], the activity in words entry is “comparable activities to the previous lead 1”.
In the case of `O=C(N[C@H]1C[C@H](c2nnc(-c3ccc(OC(F)F)cn3)n2-c2ccccc2F)C1)c1ccnc2cccnc12` [compound 34], the concentration in solution in [3] (pH 7.4) (solubility) came to 14 µM (≈ 7.44 µg/mL).
As to `O=C(N[C@H]1C[C@H](c2nnc(-c3ccc(OC(F)F)cn3)n2-c2ccccc2F)C1)c1ccnc2cc(F)cnc12` [compound 35], the concentration in solution in data set [3] (pH 7.4) (solubility) came to 54 µM (≈ 29.7 µg/mL).
Consider `O=C(N[C@H]1C[C@H](c2nnc(-c3ccncn3)n2-c2ccccc2Cl)C1)C1CCCCC1` [compound 53], for which, in data set [1], the activity in words result is “inactive”.
The compound `Cc1cccc(-c2nnc([C@H]3C[C@H](NC(=O)c4ccnc5cccnc45)C3)n2-c2ccccc2F)n1` [compound 30] had a solubility in [3] (pH 7.4) greater than 80 µM.

Source of the values: article PMC8008393, “Preclinical Lead Optimization of a 1,2,4-Triazole Based Tankyrase Inhibitor” (Journal of Medicinal Chemistry, 2020).
